Reference: US20100173837A1, “DOSING FORMS AND REGIMENS COMPRISING 3-[(R)-2-(N,N-DIMETHYLAMINO)ETHYLTHIO-SAR]-4-(GAMMAHYDROXYMETHYLLEUCINE)CYCLOSPORINE” (priority 2009, published 2010)
Values after ≈ are worked out from the molar mass of the structure shown. Values joined by “and” are separate entries in the source; they are usually repeats but may differ in a detail not shown here. Equal entries are not always repeated. Where two headings read alike, the source gives them in different places.

Legend:
[1] = single dose pharmacokinetic study in healthy volunteers; settings: human, in vivo, 400 mg single dose (capsules), read-out: Mean SCY-635 Plasma Concentration
Procedure: Blood samples were collected from human subjects during the 72-hour interval immediately following administration of a single dose of SCY-635. […] Concentrations of SCY-635 in human blood and plasma samples from the study described in this Example were determined using validated high pressure liquid chromatography/tandem mass spectrometric (HPLC-MS/MS) methods with assay ranges of 50 to 5000 ng/mL for whole blood and 15 to 2000 ng/mL for plasma. The table below summarizes the results obtained (“BLOQ” means below the limit of quantitation).

[2] = human, in vivo
From the text: SCY-635 (given as oral capsules [400 milligram dose] or tablets [500 and 600 milligram doses] as described in Example 3 above) was examined in a randomized, double-blind, placebo-controlled, pharmacokinetic study in normal healthy adult volunteers. Three cohorts received a single dose of either 400, 500 or 600 milligrams of SCY-635. Each cohort was comprised of 8 human subjects (2 placebo and 6 active). Blood samples were collected from human subjects during the 72-hour interval immediately following administration of a single dose of SCY-635.

[3] = 500 mg b.i.d. 14-day pharmacokinetic study in healthy volunteers; settings: human, in vivo, 264 h post first dose, read-out: Mean SCY-635 Plasma Concentration
From the text: SCY-635 (given as oral tablets as described in Example 3 above) was examined in a double-blind, placebo-controlled, pharmacokinetic study in normal healthy adult volunteers. […] On Day 14, only the morning dose of drug was given and blood samples were collected during the 72-hour interval immediately following administration of the final dose. In addition, blood samples for the measurement of trough drug concentrations were collected from the subjects immediately prior to the administration of SCY-635 on the mornings of Days 2-6 and 8-13. […] Concentrations of SCY-635 in human blood and plasma samples from the two subjects were determined using validated high pressure liquid chromatography/tandem mass spectrometric (HPLC-MS/MS) methods with assay ranges of 50 to 5000 ng/mL for whole blood and 15 to 2000 ng/mL for plasma.

[4] = tested on: replicon cells; experiment: cell cytotoxicity on replicon cells (LDH release, ribosomal RNA); settings: replicon cells
Procedure: (§1) Cell cytotoxicity was assessed by measuring the release of lactate dehydrogenase from cell membranes and by measuring total ribosomal RNA. […] SCY-635 was assessed for cytotoxicity in primary human hepatocytes. […] SCY-635 was also assessed for cytotoxicity in primary human renal tubular epithelial cells.

[5] = as above; settings: human, replicon cells (Huh-7 background)
Procedure: as §1

[6] = target: T1, cyclophilin A (Homo sapiens, UniProt P62937); settings: in vitro studies; cited from earlier work
[7] = tested on: primary human renal tubular epithelial cells
Procedure: as §1

[8] = tested on: primary human hepatocytes
Procedure: as §1

[9] = target: T1, cyclophilin A; settings: in vitro studies; cited from earlier work; remark: listed apart in the source
[10] = human, in vivo; remark: listed apart in the source
Procedure: SCY-635 (given as oral capsules as described in Example 3 above) was examined in a randomized, double-blind, placebo-controlled, multi-dose study to adult volunteers who are chronically infected with hepatitis C (subtype 1). Three cohorts received 100, 200 or 300 milligrams of SCY-635 three times per day (100 mg, 200 mg or 300 mg t.i.d., respectively) per os for 15 consecutive days. The 100 mg t.i.d. cohort was comprised of 7 human subjects (1 placebo and 6 active); the 200 mg t.i.d. cohort was comprised of 6 human subjects (1 placebo and 5 active); and the 300 mg t.i.d. cohort was comprised of 7 human subjects (1 placebo and 6 active).
All human subjects were male (n=20); 75% were African American. Average age was 53.0 years. Average HCV RNA plasma viremia on enrollment was 5,600,000 IU/ml, as measured by the quantitative Roche COBAS taqMan assay. 55% of human subjects were treatment naïve.

[11] = tested on: full length genotype 1b derived replicon in human hepatoma cell line; experiment: anti-HCV activity in full length genotype 1b replicon, RT-PCR; format: cell-based; settings: 72-hour incubation
Procedure: (§2) The anti-HCV activity of SCY-635 was also assessed in a human hepatoma cell line that contains a full length genotype 1b derived replicon. Cells were processed following a 72-hour incubation at 37° C. Intracellular RNA from each well was extracted and the level of HCV-specific RNA was determined by reverse transcriptase-real time PCR. Cytotoxic effects were measured by assessing ribosomal RNA as an indication of total cell numbers.

[12] = tested on: HCV-specific RNA replication; settings: subgenomic and full length replicon systems; cited from earlier work
[13] = human, in vivo; remark: listed apart in the source
From the text: SCY-635 (given as oral tablets as described in Example 3 above) was examined in a double-blind, placebo-controlled, pharmacokinetic study in normal healthy adult volunteers. […] On Day 14, only the morning dose of drug was given and blood samples were collected during the 72-hour interval immediately following administration of the final dose. In addition, blood samples for the measurement of trough drug concentrations were collected from the subjects immediately prior to the administration of SCY-635 on the mornings of Days 2-6 and 8-13.

[14] = tested on: Con1 (genotype 1b) bi-cistronic subgenomic replicon in Huh-7; experiment: anti-HCV activity in Huh-7 subgenomic replicon, luciferase; format: cell-based; settings: for EC50 / EC90 / IC50 / IC90: Hepatitis C virus; for EC50: corresponds to IC50 in μM, read-out: mean effective concentration EC50; for EC90: read-out: mean effective concentration EC90
Procedure: The anti-HCV activity of SCY-635 was assessed in a human hepatoma cell line (Huh-7) that contains a Con1 (genotype 1b) bi-cistronic subgenomic replicon. The replicon contains a stable luciferase reporter gene and three cell culture adaptive mutations. The subgenomic replicon contains the 5′ terminus (which includes the HCV Internal Ribosomal Entry Site and the first few amino acids of the HCV core protein) which drives the production of the neomycin phosphotransferase protein. The EMCV IRES element directs the translation of the second cistronic unit that encodes the non-structural proteins NS3, NS4A, NS4B, NS5A, and NS5B. For comparative purposes HCV RNA replication was assessed by quantifying HCV replicon-derived luciferase activity and by quantifying HCV-specific RNA using reverse transcriptase-real time PCR. Duplicate plates were incubated with various concentrations of SCY-635 and were processed either for luciferase activity or for total RNA extraction at 24, 48, 72 and 120 hours after drug treatment. SCY-635 was tested at twelve half-log dilutions ranging from 0.00016 to 50 μM. Stock solutions of each test article were diluted into culture media and added to the plate. After a 72 hour incubation, cells were processed to determine luciferase luminescence as a measurement of antiviral activity. Three replicates were performed and mean values were calculated.

[15] = tested on: human hepatoma cell line containing full length replicon; experiment: cytotoxicity in full length replicon cells (ribosomal RNA); format: cell-based; settings: concentrations up to 10 μM, 72-hour incubation
Procedure: as §2

[16] = in vitro; settings: human
Procedure: as §1

[17] = tested on: Huh-7 cell line; experiment: in vitro; settings: Huh-7 cell line
Procedure: as §1

[18] = tested on: hepatitis C (subtype 1); experiment: plasma HCV RNA viral load in HCV-infected subjects, 15-day t.i.d. study; format: in vivo, human; settings: 15 days, per os
Procedure: All human subjects were male (n=20); 75% were African American. Average age was 53.0 years. […] Viral load data from the study described in Example 4 above was measured by the quantitative Roche COBAS […] assay. The test measures HCV RNA in International Units (IU) per mL using real-time Polymerase Chain Reaction (RT-PCR) technology. […] All clinical viral load samples were assayed at LabCorp.

[19] = Huh-7, by inspection of the curves
[20] = linear regression, 72 hour incubation, luciferase

T1 sequence (P62937 whole entry): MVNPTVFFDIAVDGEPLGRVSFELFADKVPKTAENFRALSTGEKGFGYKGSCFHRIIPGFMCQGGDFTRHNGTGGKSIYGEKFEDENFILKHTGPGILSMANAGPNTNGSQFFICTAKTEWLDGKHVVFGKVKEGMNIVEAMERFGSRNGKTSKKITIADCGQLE

C/C=C/C[C@@H](C)[C@@H](O)[C@H]1C(=O)N[C@@H](CC)C(=O)N(C)[C@H](SCCN(C)C)C(=O)N(C)[C@@H](CC(C)(C)O)C(=O)N[C@@H](C(C)C)C(=O)N(C)[C@@H](CC(C)C)C(=O)N[C@@H](C)C(=O)N[C@H](C)C(=O)N(C)[C@@H](CC(C)C)C(=O)N(C)[C@@H](CC(C)C)C(=O)N(C)[C@@H](C(C)C)C(=O)N1C [SCY-635, 3-[(R)-2-(N,N-dimethylamino)ethylthio-Sar]-4-(gammahydroxymethylleucine)cyclosporine]
concentration at 8 h [1]: 107 ng/mL
dose limiting toxicity [2]: no evidence of a dose limiting toxicity
concentration at 264 h [3]: 411 ng/mL
selectivity index (CC50/IC50) [4]: 129.0
cell cytotoxicity ([4]; 72-hour incubation, concentrations up to and including 5 μM): No significant cell cytotoxicity
CC50 at 72 h [5]: 14200 nM
inhibition of peptidyl prolyl isomerase activity of cyclophilin A [6]: inhibiting its intrinsic peptidyl prolyl isomerase activity
50% inhibitory concentration for cell viability [7]: 60.6 µM
50% inhibitory concentration for cell viability ([8]; human, 48 h): 33 µM
selectivity index ([8]; primary human hepatocytes): approximately 300
binding to cyclophilin A [9]: capable of binding to cyclophilin A
dose limiting toxicity [10]: no evidence of a dose limiting toxicity
EC50 ([11]; 3 independent experiments, single values, read-out: EC50 (HCV-specific RNA)): 160 nM and 210 nM
EC90 ([11]; 3 independent experiments, single values, read-out: EC90 (HCV-specific RNA)): 710 nM and 790 nM
EC50 ([11]; Hepatitis C virus, 72 h, 3 independent experiments, single values, read-out: EC50 (HCV-specific RNA)): 130 nM
EC90 ([11]; Hepatitis C virus, 72 h, 3 independent experiments, single values, read-out: EC90 (HCV-specific RNA)): 570 nM
EC50 ([11]; Hepatitis C virus, 72 h, mean of 3 experiments, read-out: mean EC50 (HCV-specific RNA)): 170 nM
EC90 ([11]; Hepatitis C virus, 72 h, mean of 3 experiments, read-out: mean EC90 (HCV-specific RNA)): 690 nM
inhibition of HCV-specific RNA replication [12]: potent and selective inhibition
dose limiting toxicity [13]: no evidence of a dose limiting toxicity
EC50 [14, 19]: 0.107 µg/mL (≈ 0.0809 µM)
EC50 ([14]; Huh-7, linear regression): 0.121 µg/mL (≈ 0.0915 µM)
EC90 ([14]; Huh-7, linear regression, corresponds to IC90 in μM): 0.501 µg/mL (≈ 0.379 µM)
IC50 ([14]; Huh-7, by inspection of the curves, 72 hour incubation, luciferase, read-out: mean IC50 (HCV replication)): 81 nM
IC90 ([14]; Huh-7, by inspection of the curves, read-out: mean IC90 (HCV replication)): 333 nM
EC90 [14, 19]: 0.441 µg/mL (≈ 0.334 µM)
IC50 ([14]; Huh-7, linear regression, 72 hour incubation, luciferase, read-out: mean calculated IC50 (HCV replication)): 91 nM
IC90 ([14]; Huh-7, linear regression, 72 hour incubation, luciferase, read-out: mean calculated IC90 (HCV replication)): 397 nM
mean IC75 (HCV replication) ([14]; by inspection of the curves): 165 nM
mean IC95 (HCV replication) ([14]; by inspection of the curves): 410 nM
mean IC98 (HCV replication) ([14]; by inspection of the curves): 0.500 µM
mean effective concentration EC75 ([14]; by inspection of the curves): 0.217 µg/mL
mean effective concentration EC95 ([14]; by inspection of the curves): 0.542 µg/mL
mean effective concentration EC98 ([14]; by inspection of the curves): 661 ng/mL
mean effective concentration EC99 ([14]; by inspection of the curves): 2088 ng/mL
sixth IC value of the list (not named; matches EC99) ([14]; by inspection of the curves): 1.580 µM
mean calculated IC75 (HCV replication) [14, 20]: 200 nM
mean calculated IC95 (HCV replication) [14, 20]: 455 nM
mean effective concentration EC75 ([14]; linear regression, corresponds to IC75 in μM): 0.264 µg/mL
mean effective concentration EC95 ([14]; linear regression, corresponds to IC95 in μM): 0.601 µg/mL
cell cytotoxicity [15]: absence of significant cell cytotoxicity
CC50 at 72 h [16]: 13700 nM
selectivity index (CC50/IC50) [17]: 124.5
mean nadir value of plasma HCV RNA below baseline ([18]; 100 mg t.i.d.): less than 0.5 log10
median nadir value of plasma HCV RNA below baseline ([18]; 100 mg t.i.d.): less than 0.5 log10
mean nadir value of plasma HCV RNA below baseline ([18]; 200 mg t.i.d.): less than 0.5 log10
median nadir value of plasma HCV RNA below baseline ([18]; 200 mg t.i.d.): less than 0.5 log10
group mean nadir value of plasma HCV RNA below baseline ([18]; 300 mg t.i.d.): 2.33 log10
group median nadir value of plasma HCV RNA below baseline ([18]; 300 mg t.i.d.): 1.90 log10
